Measurements published in patent US20230002367A1, “BIFUNCTIONAL COMPOUNDS” (Hoffmann-La Roche Inc., priority 2019, published 2023).

Biological target: T1, SMARCA2 (Homo sapiens, UniProt P51531)
T1 construct: endogenous in cells
Experiment: SMARCA2 HiBiT degradation assay (cellular)
Format: cell-based
Conditions: for Emax: A549, Emax = amount of residual protein remaining in the cell following compound treatment; for DC50: SMARCA2 HiBiT cells, luminescence readout, 11-point titration from 10 μM, 6 hours or 16 hours, read-out: HiBit A549 SMARCA2 IP

T1 sequence (P51531 whole entry): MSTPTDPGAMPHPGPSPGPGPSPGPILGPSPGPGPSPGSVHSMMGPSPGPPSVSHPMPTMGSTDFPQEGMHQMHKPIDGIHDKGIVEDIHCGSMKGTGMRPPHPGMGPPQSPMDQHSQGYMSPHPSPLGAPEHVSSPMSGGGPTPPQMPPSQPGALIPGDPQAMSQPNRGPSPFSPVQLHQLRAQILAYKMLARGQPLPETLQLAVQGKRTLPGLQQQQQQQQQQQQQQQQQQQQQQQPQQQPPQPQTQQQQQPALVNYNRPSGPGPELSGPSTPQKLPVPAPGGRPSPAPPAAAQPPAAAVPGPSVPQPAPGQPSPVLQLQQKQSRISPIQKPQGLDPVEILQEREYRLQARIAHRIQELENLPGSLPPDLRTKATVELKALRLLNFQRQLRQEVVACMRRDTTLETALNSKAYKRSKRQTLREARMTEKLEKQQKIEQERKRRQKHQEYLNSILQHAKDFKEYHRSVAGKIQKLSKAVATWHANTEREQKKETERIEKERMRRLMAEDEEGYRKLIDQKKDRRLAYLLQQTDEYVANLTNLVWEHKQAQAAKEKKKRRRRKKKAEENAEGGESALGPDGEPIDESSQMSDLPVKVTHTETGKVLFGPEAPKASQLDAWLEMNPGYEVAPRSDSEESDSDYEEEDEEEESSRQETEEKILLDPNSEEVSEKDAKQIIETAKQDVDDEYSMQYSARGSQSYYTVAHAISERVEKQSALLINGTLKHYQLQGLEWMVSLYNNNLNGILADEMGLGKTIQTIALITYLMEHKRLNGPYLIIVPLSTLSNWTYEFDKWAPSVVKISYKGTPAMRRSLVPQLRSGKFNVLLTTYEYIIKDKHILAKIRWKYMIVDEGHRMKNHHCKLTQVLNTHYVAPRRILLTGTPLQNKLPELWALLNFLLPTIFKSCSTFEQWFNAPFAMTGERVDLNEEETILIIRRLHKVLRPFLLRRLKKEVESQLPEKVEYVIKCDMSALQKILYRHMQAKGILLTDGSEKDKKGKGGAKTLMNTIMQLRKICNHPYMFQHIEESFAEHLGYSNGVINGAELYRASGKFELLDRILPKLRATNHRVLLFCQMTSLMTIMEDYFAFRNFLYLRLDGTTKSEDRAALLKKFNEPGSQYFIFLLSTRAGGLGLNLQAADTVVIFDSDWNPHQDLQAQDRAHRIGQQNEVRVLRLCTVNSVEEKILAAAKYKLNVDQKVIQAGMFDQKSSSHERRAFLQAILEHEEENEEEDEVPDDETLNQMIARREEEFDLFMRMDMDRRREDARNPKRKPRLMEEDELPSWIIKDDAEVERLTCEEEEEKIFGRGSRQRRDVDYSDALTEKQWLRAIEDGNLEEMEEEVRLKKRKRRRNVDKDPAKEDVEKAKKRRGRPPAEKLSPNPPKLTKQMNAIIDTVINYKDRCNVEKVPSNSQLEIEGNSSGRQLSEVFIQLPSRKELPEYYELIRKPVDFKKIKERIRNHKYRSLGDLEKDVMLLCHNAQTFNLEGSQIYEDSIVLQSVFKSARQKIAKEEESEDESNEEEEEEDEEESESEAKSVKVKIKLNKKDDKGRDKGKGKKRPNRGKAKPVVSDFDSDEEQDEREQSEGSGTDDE

Structure (SMILES) | Emax | DC50
Cc1ncsc1-c1ccc([C@H](C)NC(=O)[C@@H]2C[C@@H](O)CN2C(=O)[C@@H](NC(=O)CCOCCC(=O)N2CCN(c3ccc(CN4CCCC(Oc5cc(-c6ccccc6O)nnc5N)C4)cc3)CC2)C(C)(C)C)cc1 (mixture of isomers) [Example 38, rac-(2S,4R)-4-hydroxy-1-[rac-(2S)-2-[3-[3-[4-[4-[[3-[3-amino-6-(2-hydroxyphenyl)pyridazin-4-yl]oxy-1-piperidyl]methyl]phenyl]piperazin-1-yl]-3-oxo-propoxy]propanoylamino]-3,3-dimethyl-butanoyl]-N-[rac-(1S)-1-[4-(4-methylthiazol-5-yl)phenyl]ethyl]pyrrolidine-2-carboxamide] | 70% | 589 nM
Cc1ncsc1-c1ccc([C@H](C)NC(=O)[C@@H]2C[C@@H](O)CN2C(=O)[C@@H](NC(=O)CCC(=O)N2CCN(c3ccc(CN4CCCC(Oc5cc(-c6ccccc6O)nnc5N)C4)cc3)CC2)C(C)(C)C)cc1 (mixture of isomers) [Example 39, rac-(2S,4R)-4-hydroxy-1-[rac-(2S)-2-[[4-[4-[4-[[3-[3-amino-6-(2-hydroxyphenyl)pyridazin-4-yl]oxy-1-piperidyl]methyl]phenyl]piperazin-1-yl]-4-oxo-butanoyl]amino]-3,3-dimethyl-butanoyl]-N-[rac-(1S)-1-[4-(4-methylthiazol-5-yl)phenyl]ethyl]pyrrolidine-2-carboxamide] | 48% | 426 nM
Cc1ncsc1-c1ccc([C@H](C)NC(=O)[C@@H]2C[C@@H](O)CN2C(=O)[C@@H](NC(=O)CCCCCC(=O)N2CCN(c3ccc(CN4CCCC(Oc5cc(-c6ccccc6O)nnc5N)C4)cc3)CC2)C(C)(C)C)cc1 (mixture of isomers) [Example 40, rac-(2S,4R)-4-hydroxy-1-[rac-(2S)-2-[[7-[4-[4-[[3-[3-amino-6-(2-hydroxyphenyl)pyridazin-4-yl]oxy-1-piperidyl]methyl]phenyl]piperazin-1-yl]-7-oxo-heptanoyl]amino]-3,3-dimethyl-butanoyl]-N-[rac-(1S)-1-[4-(4-methylthiazol-5-yl)phenyl]ethyl]pyrrolidine-2-carboxamide] | 46% | 349 nM
Cc1ncsc1-c1ccc([C@H](C)NC(=O)[C@@H]2C[C@@H](O)CN2C(=O)[C@@H](NC(=O)CCCCCCCCC(=O)N2CCN(c3ccc(CN4CCCC(Oc5cc(-c6ccccc6O)nnc5N)C4)cc3)CC2)C(C)(C)C)cc1 (mixture of isomers) [Example 41, rac-(2S,4R)-4-hydroxy-1-[rac-(2S)-2-[[10-[4-[4-[[3-[3-amino-6-(2-hydroxyphenyl)pyridazin-4-yl]oxy-1-piperidyl]methyl]phenyl]piperazin-1-yl]-10-oxo-decanoyl]amino]-3,3-dimethyl-butanoyl]-N-[rac-(1S)-1-[4-(4-methylthiazol-5-yl)phenyl]ethyl]pyrrolidine-2-carboxamide] | 63% | 204 nM
Cc1ncsc1-c1ccc([C@H](C)NC(=O)[C@@H]2C[C@@H](O)CN2C(=O)[C@@H](NC(=O)CCOCCOCCOCCC(=O)N2CCN(c3ccc(N4CCCC(Oc5cc(-c6ccccc6O)nnc5N)C4)cc3)CC2)C(C)(C)C)cc1 (mixture of isomers) [Example 46, rac-(2S,4R)-4-hydroxy-1-[rac-(2S)-2-[3-[2-[2-[3-[4-[4-[3-[3-amino-6-(2-hydroxyphenyl)pyridazin-4-yl]oxy-1-piperidyl]phenyl]piperazin-1-yl]-3-oxo-propoxy]ethoxy]ethoxy]propanoylamino]-3,3-dimethyl-butanoyl]-N-[rac-(1S)-1-[4-(4-methylthiazol-5-yl)phenyl]ethyl]pyrrolidine-2-carboxamide] | 51% | 2610 nM
Cc1ncsc1-c1ccc([C@H](C)NC(=O)[C@@H]2C[C@@H](O)CN2C(=O)[C@@H](NC(=O)CCC(=O)N2CCN(c3ccc(N4CCCC(Oc5cc(-c6ccccc6O)nnc5N)C4)cc3)CC2)C(C)(C)C)cc1 (mixture of isomers) [Example 47, rac-(2S,4R)-4-hydroxy-1-[rac-(2S)-2-[[4-[4-[4-[3-[3-amino-6-(2-hydroxyphenyl)pyridazin-4-yl]oxy-1-piperidyl]phenyl]piperazin-1-yl]-4-oxo-butanoyl]amino]-3,3-dimethyl-butanoyl]-N-[rac-(1S)-1-[4-(4-methylthiazol-5-yl)phenyl]ethyl]pyrrolidine-2-carboxamide] | 55% | 733 nM
Cc1ncsc1-c1ccc([C@H](C)NC(=O)[C@@H]2C[C@@H](O)CN2C(=O)[C@@H](NC(=O)CCCCCCCCCCC(=O)N2CCN(c3ccc(N4CCCC(Oc5cc(-c6ccccc6O)nnc5N)C4)cc3)CC2)C(C)(C)C)cc1 (mixture of isomers) [Example 48, rac-(2S,4R)-4-hydroxy-1-[rac-(2S)-2-[[12-[4-[4-[3-[3-amino-6-(2-hydroxyphenyl)pyridazin-4-yl]oxy-1-piperidyl]phenyl]piperazin-1-yl]-12-oxo-dodecanoyl]amino]-3,3-dimethyl-butanoyl]-N-[rac-(1S)-1-[4-(4-methylthiazol-5-yl)phenyl]ethyl]pyrrolidine-2-carboxamide] | 22% | 135 nM
Cc1ncsc1-c1ccc([C@H](C)NC(=O)[C@@H]2C[C@@H](O)CN2C(=O)[C@@H](NC(=O)CCOCCC(=O)N(C)CC(COc2cc(-c3ccccc3O)nnc2N)c2ccccc2)C(C)(C)C)cc1 (mixture of isomers) [Example 49, rac-(2S,4R)-4-hydroxy-1-[rac-(2S)-2-[3-[3-[[3-[3-amino-6-(2-hydroxyphenyl)pyridazin-4-yl]oxy-2-phenyl-propyl]-methyl-amino]-3-oxo-propoxy]propanoylamino]-3,3-dimethyl-butanoyl]-N-[rac-(1S)-1-[4-(4-methylthiazol-5-yl)phenyl]ethyl]pyrrolidine-2-carboxamide] | 60% | 1660 nM
Cc1ncsc1-c1ccc(CNC(=O)[C@@H]2C[C@@H](O)CN2C(=O)[C@@H](NC(=O)CCCCCCCCC(=O)NCC(COc2cc(-c3ccccc3O)nnc2N)c2ccccc2)C(C)(C)C)cc1 (mixture of isomers) [Example 51, N-[3-[3-amino-6-(2-hydroxyphenyl)pyridazin-4-yl]oxy-2-phenyl-propyl]-N′-[rac-(1S)-2,2-dimethyl-1-[rac-(2S,4R)-4-hydroxy-2-[[4-(4-methylthiazol-5-yl)phenyl]methylcarbamoyl]pyrrolidine-1-carbonyl]propyl]decanediamide] | 48% | 1650 nM
Cc1ncsc1-c1ccc(CNC(=O)[C@@H]2C[C@@H](O)CN2C(=O)[C@@H](NC(=O)CCCCCC(=O)NC(COc2cc(-c3ccccc3O)nnc2N)c2ccccc2)C(C)(C)C)cc1 (mixture of isomers) [Example 62, N-[2-[3-amino-6-(2-hydroxyphenyl)pyridazin-4-yl]oxy-1-phenyl-ethyl]-N′-[rac-(1S)-2,2-dimethyl-1-[rac-(2S,4R)-4-hydroxy-2-[[4-(4-methylthiazol-5-yl)phenyl]methylcarbamoyl]pyrrolidine-1-carbonyl]propyl]heptanediamide] | 54% | 2610 nM
Cc1ncsc1-c1ccc(CNC(=O)[C@@H]2C[C@@H](O)CN2C(=O)[C@@H](NC(=O)CCCCCCCCC(=O)NC(COc2cc(-c3ccccc3O)nnc2N)c2ccccc2)C(C)(C)C)cc1 (mixture of isomers) [Example 63, N-[2-[3-amino-6-(2-hydroxyphenyl)pyridazin-4-yl]oxy-1-phenyl-ethyl]-N′-[rac-(1S)-2,2-dimethyl-1-[rac-(2S,4R)-4-hydroxy-2-[[4-(4-methylthiazol-5-yl)phenyl]methylcarbamoyl]pyrrolidine-1-carbonyl]propyl]decanediamide] | 48% | 798 nM
